Experimental data reported in patent publication US9926304B2, “1-(arylmethyl)quinazoline-2,4(1H,3H)-diones as PARP inhibitors and the use thereof” (Impact Therapeutics, Inc., priority 2011, dated 2018).

Columns and labels:
[1] = tested on: BRCA-2 deficient CAPAN-1 human pancreatic cancer cells; assay: MTT based cell viability assay: growth inhibition of BRCA-2 deficient CAPAN-1 cells; settings: 240 h, compound alone, 10 day assay
Text: Determination of the cell growth inhibiting activity of 1-(3-(4-(pyrimidin-2-yl)piperazine-1-carbonyl)benzyl)quinazoline-2,4(1H,3H)-dione and analogs on BRCA-2 deficient CAPAN-1 pancreatic duck cancer cells using a MTT based cell viability assay
BRCA-deficient cancer cells are sensitive to PARP inhibition. In the presence of PARP inhibitors, BRCA-deficient cancer cells could not grow and eventually will lead to death of cells. BRCA-2 deficient CAPAN-1 human pancreatic cancer cells were used to test the growth inhibiting activity of substituted 1-(arylmethyl)quinazoline-2,4(1H,3H)-diones. Briefly, CAPAN-1 cells are grown and maintained in IMEM medium supplemented with 20% FBS. The assay takes 10 days to finish. On day 1, 6000 CAPAN-1 cells are seeded to each well of a 96-well plate. The cells are incubated at 37° C. in a cell culture incubator overnight. In the next day, serial dilutions of compounds to be tested and reference compound (AZD2281) were prepared with a 1:3 and 1:10 fashion in DMSO. Ten-fold compound solutions were made by mixing 10 μl DMSO serial dilution solutions with 90 μl fresh growth medium. The cell culture medium was removed and 180 μl fresh media with FBS and 20 μl of compound solutions were added to each well. The final concentration of DMSO was 1%. Cells were then returned to the CO2 cell culture incubator and incubated at 37° C. for two days (day 3 and day 4). On day 5, the same procedure as what was done on day 2 was repeated. Cell culture medium was removed and fresh medium containing serial dilutions of compounds or reference compounds were added. Cells were returned to the CO2 cell culture incubator and incubated for two more days. On day 8, same procedure was repeated again and fresh medium containing the testing compounds or reference compounds were added and incubated for an additional 2 days. On day 10, 20 μl of MTT reagent (5 mg/ml) was added to each well of the cell culture plate and incubated for 4 h. The cell culture media was removed and 100 μl DMSO was added to each well. The 96-well cell culture plates were shaked horizontally for 10 min and readed in a Varioskan Flash plate reader (Thermo Fisher Scientific) at 520 and 690 nm. The obtained 520 nm absorbance readings subtracting corresponding 690 nm reading were analyzed using a commercial graphic software (GraphPad Prism 5) and plotted against the Log scale of the compound concentrations.

[2] = tested on: Human breast cancer cell line T47D; assay: Cell based caspase-3 activity assay: potentiation of MMS induced apoptosis; settings: Homo sapiens, T47D, 24 h, T47D cells, 11.1 μg/ml MMS, 24 hours, intracellular caspase-3 activity; read-out: EC50 (nM), potentiation of the apoptosis inducing activity of MMS
Method in brief: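 T47D cells were exposed for 24 h to compound plus a minimally apoptotic MMS dose (medium containing 11.1 μg/ml MMS). Lysates were incubated 3 h at 37 °C with (Ac-DEVD)2-R110 caspase-3 substrate (20 μM in added buffer) and read at ex 496/em 520 nm. EC50 came from a sigmoidal fit of RFU versus log concentration.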

[3] = tested on: SW620 human colorectal cancer cells; assay: MTT based cell viability assay: potentiation of the growth inhibiting activity of MMS; settings: Homo sapiens, SW-620, 120 h, read-out: IC50 (nM), potentiation of the growth inhibiting activity of MMS, SW620 cells, 1.7 μg/ml MMS, 5 days (120 hours), MTT

`O=C(c1cccc(Cn2c(=O)[nH]c(=O)c3cc(Cl)ccc32)c1)N1CCN(C(=O)C2CCCC2)CC1` [Example 112, 6-Chloro-1-(3-(4-(cyclopentylcarbonyl)piperazine-1-carbonyl)benzyl)quinazoline-2,4(1H,3H)-dione] showed an IC50 [1] of 767 nM, an EC50 [2] of 2.9 nM and an IC50 [3] of 14 nM.
Compound `O=C(c1cccc(Cn2c(=O)[nH]c(=O)c3cc(Cl)ccc32)c1)N1CCN(C(=O)C2CCCCC2)CC1` [Example 113, 6-Chloro-1-(3-(4-(cyclohexylcarbonyl)piperazine-1-carbonyl)benzyl)quinazoline-2,4(1H,3H)-dione] has an IC50 [1] of 170 nM, an EC50 [2] of 17 nM and an IC50 [3] of 9.6 nM.
`O=C(c1cc(Cn2c(=O)[nH]c(=O)c3cc(Cl)ccc32)ccc1F)N1CCN(c2ncccn2)CC1` [Example 117, 6-Chloro-1-(4-fluoro-3-(4-(pyrimidin-2-yl)piperazine-1-carbonyl)benzyl)quinazoline-2,4(1H,3H)-dione] was tested, and the IC50 [1] was 39 nM, the EC50 [2] was 5.8 nM and the IC50 [3] was 5.1 nM.
For `O=C(c1cc(Cn2c(=O)[nH]c(=O)c3cc(Cl)ccc32)ccc1F)N1CCN(C(=O)C2CCCC2)CC1` [Example 118, 6-Chloro-1-(3-(4-(cyclopentylcarbonyl)piperazine-1-carbonyl)-4-fluorobenzyl)quinazoline-2,4(1H,3H)-dione], the IC50 [1] was 54 nM, the EC50 [2] was 3.1 nM and the IC50 [3] was 0.82 nM.
For `O=C(c1cc(Cn2c(=O)[nH]c(=O)c3cc(Cl)ccc32)ccc1F)N1CCN(C(=O)C2CCCCC2)CC1` [Example 119, 6-Chloro-1-(3-(4-(cyclohexylcarbonyl)piperazine-1-carbonyl)-4-fluorobenzyl)quinazoline-2,4(1H,3H)-dione], the IC50 [1] was 56 nM, the EC50 [2] was 3 nM and the IC50 [3] was 0.72 nM.
`O=C(c1ccc(F)c(Cn2c(=O)[nH]c(=O)c3cc(Cl)ccc32)c1)N1CCN(c2ncccn2)CC1` [Example 123, 6-Chloro-1-(6-fluoro-3-(4-(pyrimidin-2-yl)piperazine-1-carbonyl)benzyl)quinazoline-2,4(1H,3H)-dione] was tested, and the IC50 [1] was 111 nM, the EC50 [2] was 11 nM and the IC50 [3] was 15 nM.
`O=C(c1ccc(F)c(Cn2c(=O)[nH]c(=O)c3cc(Cl)ccc32)c1)N1CCN(C(=O)C2CCCC2)CC1` [Example 124, 6-Chloro-1-(3-(4-(cyclopentylcarbonyl)piperazine-1-carbonyl)-6-fluorobenzyl)quinazoline-2,4(1H,3H)-dione] showed an IC50 [1] of 137 nM, an EC50 [2] of 3.8 nM and an IC50 [3] of 9.9 nM.
With `O=C(c1cccc(Cn2c(=O)[nH]c(=O)c3c(F)cccc32)c1)N1CCN(C(=O)C2CCCC2)CC1` [Example 128, 1-(3-(4-(Cyclopentylcarbonyl)piperazine-1-carbonyl)benzyl)-5-fluoroquinazoline-2,4(1H,3H)-dione] the IC50 [1] was 442 nM, the EC50 [2] was 12 nM and the IC50 [3] was 37 nM.
With `O=C(c1cc(Cn2c(=O)[nH]c(=O)c3c(F)cccc32)ccc1F)N1CCN(C(=O)C2CCCC2)CC1` [Example 133, 1-(3-(4-(Cyclopentylcarbonyl)piperazine-1-carbonyl)-4-fluorobenzyl)-5-fluoroquinazoline-2,4(1H,3H)-dione] the IC50 [1] was 22 nM, the EC50 [2] was 2.1 nM and the IC50 [3] was 4.1 nM.
`O=C(c1cc(Cn2c(=O)[nH]c(=O)c3c(F)cccc32)ccc1F)N1CCN(C(=O)C2CCCCC2)CC1` [Example 134, 1-(3-(4-(Cyclohexylcarbonyl)piperazine-1-carbonyl)-4-fluorobenzyl)-5-fluoroquinazoline-2,4(1H,3H)-dione] gave an IC50 [1] of 45 nM, an EC50 [2] of 4.7 nM and an IC50 [3] of 5.8 nM.
For `O=C(c1cccs1)N1CCN(C(=O)c2cc(Cn3c(=O)[nH]c(=O)c4c(F)cccc43)ccc2F)CC1` [Example 136, 5-Fluoro-1-(4-fluoro-3-(4-(thiophene-2-carbonyl)piperazine-1-carbonyl)benzyl)quinazoline-2,4(1H,3H)-dione], the IC50 [1] was 40 nM, the EC50 [2] was 3.2 nM and the IC50 [3] was 7.1 nM.
